Test results taken from ChEMBL document CHEMBL4808176, “Optimization of Truncated Glucagon Peptides to Achieve Selective, High Potency, Full Antagonists” (J Med Chem, 2021).
Active and inactive are the calls of the source. The rule behind the calls is not given here. Peptide text beside a SMILES is read from it.

Assays:
[1] = target: T1, Gastric inhibitory polypeptide receptor (Mus musculus) (UniProt Q0P543); assay: Antagonist activity at mouse GIPR expressed in CHO-K1 cells assessed as inhibition of GIP-induced cAMP production relative to control; assay type: cell-based; conditions: concentration not given here
T1 sequence (whole entry): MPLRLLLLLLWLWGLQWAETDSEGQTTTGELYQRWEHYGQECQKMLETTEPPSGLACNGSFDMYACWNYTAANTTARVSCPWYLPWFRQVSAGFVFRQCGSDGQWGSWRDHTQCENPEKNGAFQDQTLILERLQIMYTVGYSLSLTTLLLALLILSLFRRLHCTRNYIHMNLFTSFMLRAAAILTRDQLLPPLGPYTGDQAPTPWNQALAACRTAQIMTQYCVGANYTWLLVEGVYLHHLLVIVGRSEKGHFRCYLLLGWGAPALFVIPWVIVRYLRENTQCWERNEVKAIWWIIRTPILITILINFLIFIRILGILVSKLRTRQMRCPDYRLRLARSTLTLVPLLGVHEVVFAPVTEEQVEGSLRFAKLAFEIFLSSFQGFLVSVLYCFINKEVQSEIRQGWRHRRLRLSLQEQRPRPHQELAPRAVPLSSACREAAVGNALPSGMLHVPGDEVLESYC

[2] = target: Glucagon receptor (Mus musculus) (UniProt Q61606); assay: Antagonist activity at mouse GCGR expressed in CHO-K1 cells assessed as inhibition of glucogon-induced cAMP production relative to control; assay type: functional, cell-based; conditions: filed as antagonist, concentration not given here
[3] = tested on: Mus musculus; assay: Inhibition of IUB288-induced glucose elevation in C57BL/6 mouse at 1500 nmol/kg, sc pretreated for 15 mins followed by IUB288 stimulation and measured upto 120 mins; assay type: functional, organism-based; conditions: time 135.0 min
[4] = target: Glucagon-like peptide 1 receptor (Homo sapiens, UniProt P43220); assay: Antagonist activity at human GLP-1R expressed in HEK293 cells assessed as inhibition of GLP1-induced cAMP production; assay type: functional, cell-based
[5] = target: T2, Glucagon-like peptide 1 receptor (Mus musculus, UniProt O35659); assay: Antagonist activity at mouse GLP1R expressed in CHO-K1 cells assessed as inhibition of GLP1-induced cAMP production; assay type: functional, cell-based
T2 sequence (O35659 whole entry): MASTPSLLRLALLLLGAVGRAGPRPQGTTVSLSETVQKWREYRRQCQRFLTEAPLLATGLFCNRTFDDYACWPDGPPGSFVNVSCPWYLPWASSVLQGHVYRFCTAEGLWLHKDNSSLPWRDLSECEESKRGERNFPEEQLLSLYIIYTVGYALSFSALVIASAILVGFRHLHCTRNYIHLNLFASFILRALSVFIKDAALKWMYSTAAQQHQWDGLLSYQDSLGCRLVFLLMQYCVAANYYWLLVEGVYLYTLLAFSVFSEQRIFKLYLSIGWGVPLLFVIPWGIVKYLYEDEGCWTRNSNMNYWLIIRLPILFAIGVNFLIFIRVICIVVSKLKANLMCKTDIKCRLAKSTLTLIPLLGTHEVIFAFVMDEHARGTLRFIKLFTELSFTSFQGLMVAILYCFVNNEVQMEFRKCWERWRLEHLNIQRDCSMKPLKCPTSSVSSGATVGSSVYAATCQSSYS

[6] = target: T3, Gastric inhibitory polypeptide receptor (Mus musculus, UniProt Q0P543); assay: Antagonist activity at mouse GIPR expressed in CHO-K1 cells assessed as inhibition of GIP-induced cAMP production; assay type: cell-based
T3 sequence (Q0P543 whole entry): T1 sequence (whole entry)

[7] = target: T4, Glucagon-like peptide 1 receptor (Mus musculus) (UniProt O35659); assay: Antagonist activity at mouse GLP1R expressed in CHO-K1 cells assessed as inhibition of GLP1-induced cAMP production relative to control; assay type: functional, cell-based; conditions: concentration not given here
T4 sequence (whole entry): T2 sequence (O35659 whole entry)

[8] = target: T5, Glucagon receptor (Homo sapiens, UniProt P47871); assay: Antagonist activity at human GCGR expressed in HEK293 cells assessed as inhibition of glucogon-induced cAMP production relative to control; assay type: functional, cell-based; conditions: filed as antagonist, concentration not given here
[9] = target: T6, Gastric inhibitory polypeptide receptor (Homo sapiens, UniProt P48546); assay: Antagonist activity at human GIPR expressed in HEK293 cells assessed as inhibition of GIP-induced cAMP production; assay type: functional, cell-based
T6 sequence (P48546 whole entry): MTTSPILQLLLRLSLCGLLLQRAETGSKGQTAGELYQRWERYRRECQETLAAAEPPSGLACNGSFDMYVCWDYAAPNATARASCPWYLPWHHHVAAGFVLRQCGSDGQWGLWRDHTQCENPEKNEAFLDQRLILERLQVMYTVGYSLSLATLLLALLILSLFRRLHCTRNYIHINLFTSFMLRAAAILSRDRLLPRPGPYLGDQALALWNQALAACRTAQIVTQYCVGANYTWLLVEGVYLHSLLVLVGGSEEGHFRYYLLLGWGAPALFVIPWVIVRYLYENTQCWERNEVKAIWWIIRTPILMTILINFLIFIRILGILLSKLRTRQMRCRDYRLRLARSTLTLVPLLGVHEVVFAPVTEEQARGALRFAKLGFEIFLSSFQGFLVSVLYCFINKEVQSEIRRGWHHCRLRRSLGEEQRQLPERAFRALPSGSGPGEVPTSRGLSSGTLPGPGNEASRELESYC

[10] = target: T7, Gastric inhibitory polypeptide receptor (Homo sapiens) (UniProt P48546); assay: Antagonist activity at human GIPR expressed in HEK293 cells assessed as inhibition of GIP-induced cAMP production relative to control; assay type: functional, cell-based; conditions: concentration not given here
T7 sequence (whole entry): T6 sequence (P48546 whole entry)

[11] = Cmax in C57BL/6 mouse at 1500 nmol/kg, sc measured upto 240 mins by LC-MS analysis; assay type: ADME, organism-based; design: route subcutaneous, dose 1500 nmol/kg, time <=240; conditions: in vivo
[12] = Toxicity in C57BL/6 mouse assessed as adverse local and systemic responses at 1500 nmol/kg, sc; conditions: in vivo
[13] = Chemical stability of compound in PBS buffer incubated for 5 to 7 days by LC-MS analysis; assay type: physicochemical; conditions: time 5-7 day
[14] = Half life in C57BL/6 mouse at 1500 nmol/kg, sc measured upto 240 mins by LC-MS analysis; assay type: ADME, organism-based; conditions: in vivo
[15] = target: T5, Glucagon receptor; assay: Antagonist activity at human GCGR expressed in HEK293 cells assessed as inhibition of glucogon-induced cAMP production; assay type: functional, cell-based
[16] = target: Glucagon receptor (Mus musculus, UniProt Q61606); assay: Antagonist activity at mouse GCGR expressed in CHO-K1 cells assessed as inhibition of glucogon-induced cAMP production; assay type: functional, cell-based
[17] = AUC in C57BL/6 mouse at 1500 nmol/kg, sc measured upto 240 mins by LC-MS analysis; assay type: ADME, organism-based; design: route subcutaneous, dose 1500 nmol/kg, time <=240; conditions: in vivo
[18] = Aqueous solubility of the compound at pH 8 by LC-MS analysis; assay type: physicochemical; conditions: buffer
[19] = Cmax in C57BL/6 mouse at 1500 nmol/kg, sc measured upto 48 hrs by LC-MS analysis; assay type: ADME, organism-based; design: route subcutaneous, dose 1500 nmol/kg, time <=48; conditions: in vivo
[20] = AUC in C57BL/6 mouse at 1500 nmol/kg, sc measured upto 48 hrs by LC-MS analysis; assay type: ADME, organism-based; design: route subcutaneous, dose 1500 nmol/kg, time <=48; conditions: in vivo
[21] = Half life in C57BL/6 mouse at 1500 nmol/kg, sc measured upto 48 hrs by LC-MS analysis; assay type: ADME, organism-based; conditions: in vivo
[22] = tested on: Mus musculus; assay: Inhibition of IUB288-induced glucose elevation in C57BL/6 mouse at 1500 nmol/kg, sc pretreated for 4 to 8 hrs followed by IUB288 stimulation and measured upto 4 hrs; assay type: functional, organism-based; conditions: time 8-12 hrs
[23] = tested on: Mus musculus; assay: Inhibition of IUB288-induced glucose elevation in C57BL/6 mouse at 1500 nmol/kg, sc pretreated for 24 hrs followed by IUB288 stimulation and measured upto 4 hrs; assay type: functional, organism-based; conditions: time 28.0 hrs

T5 sequence (P47871 whole entry): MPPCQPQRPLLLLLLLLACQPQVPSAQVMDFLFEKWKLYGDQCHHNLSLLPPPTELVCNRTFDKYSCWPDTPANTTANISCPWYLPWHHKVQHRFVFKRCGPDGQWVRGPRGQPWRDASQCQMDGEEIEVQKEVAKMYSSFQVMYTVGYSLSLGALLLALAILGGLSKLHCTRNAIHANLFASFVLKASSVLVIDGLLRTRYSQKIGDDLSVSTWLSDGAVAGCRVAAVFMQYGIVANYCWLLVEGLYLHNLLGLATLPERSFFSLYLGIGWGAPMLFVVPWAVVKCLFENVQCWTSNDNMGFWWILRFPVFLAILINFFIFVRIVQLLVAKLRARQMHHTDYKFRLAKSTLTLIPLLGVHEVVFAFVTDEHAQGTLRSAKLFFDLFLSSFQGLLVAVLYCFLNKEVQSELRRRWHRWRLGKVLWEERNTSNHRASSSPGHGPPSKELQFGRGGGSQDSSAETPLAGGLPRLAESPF
Glucagon receptor (Mus musculus), sequence (Q61606 whole entry): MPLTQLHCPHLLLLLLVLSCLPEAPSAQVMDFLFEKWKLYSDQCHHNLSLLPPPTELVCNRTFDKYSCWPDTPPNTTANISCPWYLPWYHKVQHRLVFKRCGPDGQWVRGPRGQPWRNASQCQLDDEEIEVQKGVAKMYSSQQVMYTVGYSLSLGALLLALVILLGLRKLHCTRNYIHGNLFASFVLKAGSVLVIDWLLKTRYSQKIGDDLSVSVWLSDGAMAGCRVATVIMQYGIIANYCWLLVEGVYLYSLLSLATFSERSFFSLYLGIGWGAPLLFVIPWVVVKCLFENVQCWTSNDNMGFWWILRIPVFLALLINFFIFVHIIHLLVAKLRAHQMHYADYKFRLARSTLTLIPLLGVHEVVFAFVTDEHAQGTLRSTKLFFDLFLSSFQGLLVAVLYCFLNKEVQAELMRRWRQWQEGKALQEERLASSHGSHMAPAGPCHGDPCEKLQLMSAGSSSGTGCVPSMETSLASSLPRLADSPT
Glucagon receptor (Mus musculus, UniProt Q61606), sequence (Q61606 whole entry): as above
Glucagon-like peptide 1 receptor (Homo sapiens, UniProt P43220), sequence (P43220 whole entry): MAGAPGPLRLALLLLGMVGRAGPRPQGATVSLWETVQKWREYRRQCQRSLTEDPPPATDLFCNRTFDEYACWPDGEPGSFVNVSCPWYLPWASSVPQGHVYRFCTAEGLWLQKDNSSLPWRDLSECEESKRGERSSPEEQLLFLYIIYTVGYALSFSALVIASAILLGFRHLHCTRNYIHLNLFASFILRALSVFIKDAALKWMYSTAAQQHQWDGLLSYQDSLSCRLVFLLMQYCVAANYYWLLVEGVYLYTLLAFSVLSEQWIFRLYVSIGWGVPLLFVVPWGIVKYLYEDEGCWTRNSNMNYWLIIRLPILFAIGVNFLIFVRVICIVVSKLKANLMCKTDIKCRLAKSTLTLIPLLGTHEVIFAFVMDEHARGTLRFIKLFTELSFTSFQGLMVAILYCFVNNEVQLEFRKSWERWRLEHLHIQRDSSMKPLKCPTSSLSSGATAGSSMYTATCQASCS

SMILES	inhibition [2] [%]	IC50 [4] [µM]	IC50 [5] [µM]	IC50 [6] [µM]	inhibition [8] [%]	IC50 [9] [µM]	Activity [12]	Stabilty [13]	IC50 [15] [µM]	IC50 [16] [µM]	also measured
CSCC[C@H](NC(=O)[C@H](CC(C)C)NC(=O)[C@H](Cc1c[nH]c2ccccc12)NC(=O)[C@H](CCC(N)=O)NC(=O)[C@@H](NC(=O)[C@H](Cc1ccccc1)NC(=O)[C@H](CC(=O)O)NC(=O)[C@H](CCC(N)=O)NC(=O)[C@H](C)NC(=O)[C@H](CCCNC(=N)N)NC(=O)[C@H](CCCNC(=N)N)NC(=O)[C@H](CO)NC(=O)[C@H](CC(=O)O)NC(=O)[C@H](CC(C)C)NC(=O)[C@H](Cc1ccc(O)cc1)NC(=O)[C@H](CCCCN)NC(=O)[C@H](CO)NC(=O)[C@H](Cc1ccc(O)cc1)NC(=O)[C@H](CC(=O)O)NC(=O)[C@H](CO)NC(=O)[C@@H](NC(=O)[C@@H](O)Cc1ccccc1)[C@@H](C)O)C(C)C)C(=O)N[C@@H](CC(=O)O)C(=O)N[C@H](C(N)=O)[C@@H](C)O	92	> 1	> 1	> 1	99	> 1	Non-Toxic	Stable	0.0121	0.0231	inhibition [1]: 10%; inhibition [3]: Active; inhibition [7]: 1%; inhibition [10]: 20%; Cmax [11]: 261 nM; half-life [14]: 0.512 h; AUC at 4 h [17]: 0.209 µM·h; solubility [18]: > 500 µM
CCCCCCCCCCCCCCCC(=O)N[C@@H](CCC(=O)N[C@@H](CCC(=O)NCCCC[C@H](NC(=O)[C@H](CC(=O)O)NC(=O)[C@H](CO)NC(=O)[C@@H](NC(=O)[C@@H](O)Cc1ccccc1)[C@@H](C)O)C(=O)N[C@@H](CO)C(=O)N[C@@H](CCCCN)C(=O)N[C@@H](Cc1ccc(O)cc1)C(=O)N[C@@H](CC(C)C)C(=O)N[C@@H](CC(=O)O)C(=O)N[C@@H](CO)C(=O)N[C@@H](CCCNC(=N)N)C(=O)N[C@@H](CCCNC(=N)N)C(=O)N[C@@H](C)C(=O)N[C@@H](CCC(N)=O)C(=O)N[C@@H](CC(=O)O)C(=O)N[C@@H](Cc1ccccc1)C(=O)N[C@H](C(=O)N[C@@H](CCC(N)=O)C(=O)N[C@@H](Cc1c[nH]c2ccccc12)C(=O)N[C@@H](CC(C)C)C(=O)N[C@@H](CCSC)C(=O)N[C@@H](CC(=O)O)C(=O)N[C@H](C(N)=O)[C@@H](C)O)C(C)C)C(=O)O)C(=O)O (HELM PEPTIDE1{[O=C([C@@H](O)Cc1ccccc1)[*:2]].T.S.D.K.S.K.Y.L.D.S.R.R.A.Q.D.F.V.Q.W.L.M.D.T.[am]}|PEPTIDE2{[CCCCCCCCCCCCCCCC(=O)[*:2]].[gGlu].[gGlu]}$PEPTIDE1,PEPTIDE2,5:R3-3:R2$$$V2.0)	92	0.099	0.131	0.125	100	0.06	Non-Toxic	Stable	0.00043	0.00053	inhibition ([1]; filed as antagonist): 97%; Cmax [19]: 3310 nM; AUC at 48 h [20]: 37.4 µM·h; inhibition ([7]; filed as antagonist): 99%; half-life [21]: 6.73 h; inhibition ([10]; filed as antagonist): 96%; inhibition [22]: Active; inhibition [23]: Active
